Laboratory results from patent US20250042848A1, “DEUTERATED FUNCTIONALIZED DERIVATIVES OF alpha-ALANINE, IN [sequence] FOR THE TREATMENT OF NEUROLOGICAL DISEASES” (UNIWERSYTET JAGIELLONSKI, priority 2021, published 2025).

What was measured:
[1] = test system: psychomotor seizures induced by a 32 mA, 6 Hz stimulus in mice; test: Psychomotor seizure test 6 Hz (32 mA); assay type: in vivo
Procedure: (§1) Initial screening was performed on groups of 4 mice. The mean effective dose (ED50) in a given test and the neurotoxic dose in the rotarod test (TD50) were estimated on the basis of the results obtained on 3-4 groups of animals consisting of 6 animals.
(§2) In the psychomotor seizure test (6 Hz test), seizures were induced by a 32 mA and/or 44 mA electrical stimulus of a frequency of 6 pulses per second. An electrical pulse was generated using an electric shock generator (ECT Unit 57800; Ugo Basile, Gemonio, Italy) and delivered to the animal using corneal electrodes. Before starting the test, the eye surface was gently moistened with a solution of local anesthetic (1% lidocaine solution). The study was conducted 30 minutes/2 hours after intraperitoneal administration of the compounds at various doses. An electrical stimulus was delivered continuously for a period of 3 seconds, followed by observation of the animal for a period of 10 seconds. During the experiment, the number of animals with an episode of psychomotor convulsions was counted: motor inhibition, staggering, maintaining a sitting posture, forelimb clonus, twitching of the vibrissae and Straub-tail were observed (Leclercq, K.; Kaminski, R.M. Epilepsia 2015, 56, 310-318).
(§3) The ED50 (effective dose) and TD50 (toxic dose) values along with the corresponding 95% confidence limits were calculated based on the Litchfield and Wilcoxon method (Litchfield, J.T.; Wilcoxon, F. J. Pharmacol. Exp. Ther. 1949, 96, 99-113). To perform a statistical evaluation of the results in the scPTZ test, one-way ANOVA variance analysis followed by Dunnett's post hoc test were used. The values were considered statistically significant if p<0.05.

[2] = test system: pentylenetetrazole-induced clonic seizures in mice; test: Subcutaneous pentylenetetrazole (scPTZ) seizure test; assay type: in vivo; conditions: for ED50 scPTZ: mice, in mg/kg; for latency of the first episode of clonic seizures in the scPTZ test: control 740+212.5 seconds
Procedure: as §1
In the subsutaneous pentylenetetrazole seizure test, the animals received pentylenetetrazole at a dose of 100 mg/kg. Test compounds were administered 30 minutes and 2 hours before the experiment. After PTZ administration, the animals were placed individually in transparent cages and observed for a period of 30 minutes/2 hours. During the experiment, the number of animals with a clonic seizure lasting at least 3 s with loss of balance was counted. In addition, the latency of the onset of the first clonic seizure was measured and compared with the control group (Ferreri, G. et al. Pharmacol. Biochem. Behav. 2004, 77, 859-894; Łączkowski, K. et. al. J. Enzym Inhib. Med. Chem. 2016, 31, 1576-1582).
as §3

[3] = test system: maximal electroshock seizures in mice; test: Maximal electroshock seizure test (MES); assay type: in vivo
Procedure: as §1
In the maximal electroshock seizure test (MES), the seizures were induced by 500 V, 25 mA electrical stimulus of 0.2 s in duration. The electrical pulse was generated using an electric shock generator (Rodent shocker, Type 221, Hugo Sachs Elektronik, Germany) and delivered to the animal using electrodes placed on the auricles. The study was conducted 30 minutes/2 hours after intraperitoneal administration of the compounds at various doses. During the experiment, the number of animals that experienced a seizure episode in the form of hindlimb tonic extension was counted (Łuszczki, J.J. et al. Fundam. Clin. Pharmacol. 2008, 22, 69-74).
as §3

[4] = test system: human liver microsomes (HLMs); conditions: cited from earlier work
CYP2D9 = conditions: cited from earlier work
CYP3A4 = CYP3A4 (Homo sapiens, UniProt P08684); conditions: cited from earlier work
[5] = test system: motor coordination of mice; conditions: in vivo; cited from earlier work
[6] = test system: motor coordination of mice; test: Rotarod test (motor coordination, acute neurotoxicity); assay type: in vivo; conditions: in mg/kg
Procedure: as §1
The effect of the tested compounds on motor coordination was assessed in the rotarod test (May Commat, RR 0711 RotaRod, Turkey). The day before the actual experiment, the mice were trained on a rod rotating at 10 revolutions per minute (rpm) for 3 minutes. The experiment was performed 30 minutes and 2 hours after administration of the compounds. The motor coordination of the animals was tested at the speed of the rotating rod: 10 rpm for 60 seconds. The measure of neurotoxicity was the inability to stay on the rod for a given time (Łuszczki, J.J. et al. Eur. Neuropsychopharmacol. 2005, 6, 609-616).
as §3

[7] = test system: human liver microsomes (HLMs); test: In vitro metabolic stability, human liver microsomes; assay type: in vitro ADME; conditions: 120-minute incubation with HLMs
Procedure: (§4) Metabolic stability assessment was performed using mouse (MLMs) and human (HLMs) liver microsomes purchased from Sigma-Aldrich (St. Louis, MO, USA). The detailed methodology is described in the literature (Kamiński et al. J. Med. Chem. 2015, 58, 5274-5286). The reaction mixture was prepared by mixing […] of the tested compound with mouse or human microsomes (1 mg/mL) in 10 mM TRIS-HCl buffer. The reaction mixture was pre-incubated for 5 min at 37° C. After the initial incubation, 50 μL of the NADPH Regeneration System (Promega, Madison, WI, USA) was added to initiate the reaction. The reaction mixture was then incubated for 120 min at 37° C. 200 μL of cold extra pure methanol was added to complete the reaction. The mixture was then centrifuged at 14,000 g for 15 min and the supernatants were analyzed using a Waters ACQUITY™ TQD LC/MS system with a TQ detector (Waters, Milford, USA). Each experiment was performed in triplicate.

[8] = test system: spontaneous locomotor activity of mice; conditions: mouse, in vivo; cited from earlier work
[9] = test system: mouse liver microsomes (MLMs); test: In vitro metabolic stability, mouse liver microsomes; assay type: in vitro ADME; conditions: 120-minute incubation with MLMs, NADPH
Procedure: as §4

[10] = test system: psychomotor seizures induced by a 44 mA, 6 Hz stimulus in mice; test: Psychomotor seizure test 6 Hz (44 mA); assay type: in vivo; conditions: in mg/kg
Procedure: as §1, §2, §3

[11] = 0.5 h after i.p. administration
[12] = 2.0 h after i.p. administration

CYP3A4, sequence (P08684 whole entry): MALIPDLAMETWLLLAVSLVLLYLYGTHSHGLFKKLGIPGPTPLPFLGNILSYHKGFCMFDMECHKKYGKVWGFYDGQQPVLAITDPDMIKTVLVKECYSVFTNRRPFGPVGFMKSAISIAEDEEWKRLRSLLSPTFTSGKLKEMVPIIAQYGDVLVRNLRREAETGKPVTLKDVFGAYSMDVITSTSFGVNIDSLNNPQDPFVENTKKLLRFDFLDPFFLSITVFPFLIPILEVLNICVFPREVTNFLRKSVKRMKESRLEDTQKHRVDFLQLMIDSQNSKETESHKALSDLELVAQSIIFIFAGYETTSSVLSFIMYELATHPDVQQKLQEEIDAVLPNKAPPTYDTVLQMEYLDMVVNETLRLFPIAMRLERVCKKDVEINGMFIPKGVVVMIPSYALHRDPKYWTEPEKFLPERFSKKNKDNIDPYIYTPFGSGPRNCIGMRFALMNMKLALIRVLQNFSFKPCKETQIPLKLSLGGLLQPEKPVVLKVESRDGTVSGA

Q: Which ED50 6 Hz (32 mA) [1, 11] does the source give for C[C@H](C(=O)NCc1ccccc1)N1C(=O)CCC1=O [Compound 1, reference compound] here?
A: 16.8 mg/kg

Q: What about the ED50 6 Hz (32 mA) [1, 12] of the same compound?
A: > 130 mg/kg

Q: What about the “ED50 scPTZ” value [2, 11] of the same compound?
A: 30.6

Q: And the “ED50 scPTZ” value [2, 12]?
A: >130

Q: And the “latency of the first episode of clonic seizures in the scPTZ test” value ([2]; dose 40 mg/kg)?
A: 1568+150.9 seconds

Q: What about the “latency of the first episode of clonic seizures in the scPTZ test” value ([2]; dose 60 mg/kg) of the same compound?
A: 1467+210.8 seconds

Q: And the ED50 MES [3, 11]?
A: 57.7 mg/kg

Q: And the ED50 MES [3, 12]?
A: 95.3 mg/kg

Q: What about the “metabolic stability on human microsomes” value [4] of the same compound?
A: very high metabolic stability

Q: What about the “interaction with CYP2D9 isoform of cytochrome P-450” value (CYP2D9) of the same compound?
A: no interaction

Q: And the “interaction with CYP3A4 isoform of cytochrome P-450” value (CYP3A4)?
A: no interaction

Q: And the “effect on mouse motor coordination in the rotarod test” value [5]?
A: minimal effect

Q: What about the “TD50 Rotarod” value [6, 11] of the same compound?
A: 236.2

Q: What about the “TD50 Rotarod” value [6, 12] of the same compound?
A: >300

Q: And the metabolic stability [7]?
A: high metabolic stability

Q: And the “sedative effect in spontaneous locomotor activity test on mice” value [8]?
A: no sedative effect

Q: And the “metabolic stability (metabolites in UPLC chromatograms)” value [9]?
A: no metabolites appeared

Q: What about the “ED50 6 Hz (44 mA)” value [10, 11] of the same compound?
A: 77.3

Q: And the “ED50 6 Hz (44 mA)” value [10, 12]?
A: >200

Q: For [2H]C1([2H])C(=O)N([C@H](C)C(=O)NCc2ccccc2F)C(=O)C1([2H])[2H] [d4-(R)-4, (R)—N-(2-fluorobenzyl)-2-(2,5-dioxopyrrolidin-1-yl-3,3,4,4-d4) propanamide], which ED50 6 Hz (32 mA) [1, 11] is on record?
A: 12.8 mg/kg

Q: And the ED50 6 Hz (32 mA) [1, 12]?
A: 19.8 mg/kg

Q: And the ED50 MES [3, 11]?
A: 20.5 mg/kg

Q: What about the ED50 MES [3, 12] of the same compound?
A: 25.3 mg/kg

Q: What about the “TD50 Rotarod” value [6, 11] of the same compound?
A: 127.2

Q: And the “TD50 Rotarod” value [6, 12]?
A: >300

Q: And the metabolic stability [7]?
A: high metabolic stability

Q: What about the “ED50 6 Hz (44 mA)” value [10, 11] of the same compound?
A: 51.6

Q: What about the “ED50 6 Hz (44 mA)” value [10, 12] of the same compound?
A: 36.3

Q: Which ED50 MES [3, 11] does the source give for [2H]C([2H])(NC(=O)[C@@H](C)N1C(=O)C([2H])([2H])C([2H])([2H])C1=O)c1ccccc1 [d6-(R)-5, (R)-2-(2,5-dioxopyrrolidin-1-yl-3,3,4,4-d4)-N-(phenylmethyl-d2) propanamide] here?
A: 33.4 mg/kg

Q: And the ED50 MES [3, 12]?
A: 28.7 mg/kg

Q: And the “TD50 Rotarod” value [6, 11]?
A: >100

Q: What about the “TD50 Rotarod” value [6, 12] of the same compound?
A: >300

Q: What about the metabolic stability [7] of the same compound?
A: high metabolic stability

Q: What about the “ED50 6 Hz (44 mA)” value [10, 11] of the same compound?
A: 85.6

Q: And the “ED50 6 Hz (44 mA)” value [10, 12]?
A: 50.8

Q: With [2H]C([2H])(NC(=O)[C@@H](C)N1C(=O)C([2H])([2H])C([2H])([2H])C1=O)c1ccccc1F [d6-(R)-7, (R)-2-(2,5-dioxopyrrolidin-1-yl-3,3,4,4-d4)-N-((2-fluorophenyl)methyl-d2) propanamide] as the compound, how does the ED50 6 Hz (32 mA) [1, 11] read?
A: 12.5 mg/kg

Q: What about the ED50 6 Hz (32 mA) [1, 12] of the same compound?
A: 13.4 mg/kg

Q: And the “TD50 Rotarod” value [6, 11]?
A: >100

Q: And the “TD50 Rotarod” value [6, 12]?
A: >300

Q: And the metabolic stability [7]?
A: high metabolic stability

Q: What about the “ED50 6 Hz (44 mA)” value [10, 11] of the same compound?
A: 25.1

Q: What about the “ED50 6 Hz (44 mA)” value [10, 12] of the same compound?
A: 33.5

Q: What does the source list for [2H]c1c([2H])c([2H])c(CNC(=O)[C@@H](C)N2C(=O)C([2H])([2H])C([2H])([2H])C2=O)c([2H])c1[2H] [d9-(R)-2, (2R)-2-(2,5-dioxopyrrolidin-1-yl-3,3,4,4-d4)-N-((phenyl-d5)methyl) propanamide]?
A: ED50 6 Hz (32 mA) [1, 11]: 18.2 mg/kg; ED50 6 Hz (32 mA) [1, 12]: 68 mg/kg; ED50 MES [3, 11]: 45 mg/kg; ED50 MES [3, 12]: 57.7 mg/kg; TD50 Rotarod [6, 11]: 165.4; TD50 Rotarod [6, 12]: >300; metabolic stability [7]: high metabolic stability; ED50 6 Hz (44 mA) [10, 11]: 78.3; ED50 6 Hz (44 mA) [10, 12]: 109.8

Q: With [2H]c1c([2H])c([2H])c(C([2H])([2H])NC(=O)[C@@H](C)N2C(=O)C([2H])([2H])C([2H])([2H])C2=O)c([2H])c1[2H] [d11-(R)-6, (R)-2-(2,5-dioxopyrrolidin-1-yl-3,3,4,4-d4)-N-((phenyl-d5)methyl-d2) propanamide] as the compound, how does the ED50 MES [3, 11] read?
A: 29.5 mg/kg

Q: And the ED50 MES [3, 12]?
A: 33.8 mg/kg

Q: And the “TD50 Rotarod” value [6, 11]?
A: >100

Q: What about the “TD50 Rotarod” value [6, 12] of the same compound?
A: >300

Q: What about the metabolic stability [7] of the same compound?
A: high metabolic stability

Q: What about the “ED50 6 Hz (44 mA)” value [10, 11] of the same compound?
A: 57.6

Q: What about the “ED50 6 Hz (44 mA)” value [10, 12] of the same compound?
A: 70.4
